{"source": "paper PMC13250552", "about": "(Proceedings of the National Academy of Sciences of the …, 2026)", "key": {"SiHa cells [1]": {"tested_on": "SiHa cells", "assay_type": "cell-based", "settings": "24 hours"}, "SiHa-C51S cells": {"tested_on": "SiHa-C51S cells", "assay_type": "cell-based", "settings": "24 hours"}, "RPE-1 cells": {"tested_on": "RPE-1 cells", "assay_type": "cell-based", "settings": "p53 wild-type, HPV-negative"}, "UM-SCC-104": {"tested_on": "UM-SCC-104", "assay": "Immunoblot of p53 and p21 in UM-SCC-104 cells", "assay_type": "cell-based, human", "settings": "24 hours"}, "SiHa cells [2]": {"tested_on": "SiHa cells", "assay": "Senescence SA-β-gal assay, SiHa", "assay_type": "cell-based, human", "settings": "48 h, KTI-240 3 μM, etoposide 2 μM"}, "C51S cells": {"tested_on": "C51S cells", "assay_type": "cell-based", "settings": "48 h, KTI-240 3 μM, etoposide 2 μM"}}, "data": [{"smiles": "COc1cc([C@@H]2c3cc4c(cc3[C@@H](O[C@@H]3O[C@@H]5CO[C@@H](C)O[C@H]5[C@H](O)[C@H]3O)[C@H]3COC(=O)[C@H]23)OCO4)cc(OC)c1O", "note": "[etoposide]", "values": [{"measurement": "p53 protein levels (Western blot)", "setting": "SiHa cells [1]", "result": "induced p53 in both cell lines"}, {"measurement": "p53 protein levels (Western blot)", "setting": "SiHa-C51S cells", "result": "etoposide did"}, {"measurement": "p53 protein levels (Western blot)", "setting": "RPE-1 cells", "result": "induced p53 in both cell lines"}, {"measurement": "p53 protein (immunoblot)", "setting": "UM-SCC-104", "result": "did not induce p53"}, {"measurement": "SA-β-gal senescence marker", "setting": "SiHa cells [2]", "result": "induced"}, {"measurement": "SA-β-gal senescence marker", "setting": "C51S cells", "result": "induced"}]}]}
